Reference: patent publication US7026454B1, “Neuroendocrine marker of prostate cancer and method for producing same” (University of Kansas Medical Center, priority 1998, dated 2006)
Blank lines part the entries; values can stand above or below the molecule they belong to. Where no end group is shown, it is not given here.

Columns and labels:
[1] = test system: prostate cancer cell lines; details: background statement; cited from earlier work
PC-3M cells [2] = test: 3H-thymidine incorporation (DNA synthesis) in PC-3M cells; format: cell-based; details: 24 hours, FIG. 1
Procedure: FIG. 1 illustrates the effect of exogenously added prostatic NEM on DNA synthesis of an aggressive prostate cancer (PC-3M) cell line. To obtain the results shown in FIG. 1, PC-3M cells were seeded at a density of 10,000 cells per well and incubated overnight in the complete medium. The cells were then washed with and incubated in serum-free medium containing the agents and 0.5 μCi of 3H-thymidine for 24 hours. At the end of incubation, the cells were washed three times with PBS-1 μM thymidine and the incorporated radioactivity was determined in TCA-precipitable fraction.
If NEM-induced DNA synthesis may influence proliferative activity of a prostate tumor and other cancer cells, then its immunoneutralization should reduce the growth. This hypothesis was tested by studying the rate of 3H-thymidine incorporation in PC-3M prostate cancer cells. The cells were treated either with non-immune antiserum or anti-NEM antiserum at a final dilution of 1:50.

OVCA-5 = test: Growth of non-prostate cancer cells (bone-derived cell lines); format: cell-based
PC-3M cells [3] = test: Matrigel in vitro invasion of PC-3M cells; format: cell-based
Procedure: FIG. 2 illustrates the effect of NEM on in vitro invasion of PC-3M cells. The experiment used 3 well Matrigel invasion chambers (Becton Dickinson, Bedford, Mass.). Approximately 200,000 PC-3M cells were seeded in the upper chamber in RPMI 1640 medium containing 0.1% BSA (Sigma, St. Louis), 4 mM L-glutamine, 100 IU/ml penicillin G and 100 ug/ml streptomycin. The lower chamber medium contained chemoattractant medium consisting of 80% complete medium (RPMI 1640, 12% horse serum, 4% […] fetal calf serum, 4 mM L-glutamine, 100 IU/ml penicillin G and […]). Different concentrations of NEM or conditioned media from NEM-PC3-M cells that express NEM (dilutions ranging from 1 to 5) were added to the upper chamber. The experiments were carried out for 72 hours. At the end of the incubation period the Matrigel was scraped off using cotton swabs and the top insert was fixed and stained using Diff Quick staining (Dade Diagnostics, Aguada, PR). The relative invasive potential was determined by normalizing for cell growth. This was done by plating 100,000 cells in six well dishes in chemoattractant medium and determining the relative growth of cells after 72 hours. The number of cells per 100×field were expressed as mean +/−SEM.
FIG. 4 illustrates the effect of the anti-NEM antiserum on invasion of PC-3M cells. […]

[4] = test system: NEM receptors on prostate cancer cells; test: Binding of NEM to its receptors on prostate cancer cells
[5] = target: NEM receptor on prostate cancer cells; test: cell-based or functional assay

Molecule: Pindobind
growth of prostate cancer cell lines [1]: inhibit the growth

Molecule: NEM: novel neuroendocrine growth factor or marker isolated from prostate cancer cells; amino acid SEQ ID NO: 6 expressed in PC-3M cells (RTCVLGYLHIVPEFIESQLLGLLSPVSL; listed as Homo sapiens)
concentration at which the increase in DNA synthesis was significant (PC-3M cells [2]; PC-3M cells): ≥ 10 nM
3H-thymidine incorporation (DNA synthesis) (PC-3M cells [2]; exogenously added NEM, serum-free medium): stimulated 3H-thymidine incorporation in a dose-dependent fashion
growth of non-prostate cancer cells (OVCA-5): stimulates the growth
invasiveness of PC-3M cells (PC-3M cells [3]; all concentrations of NEM significant vs 0, P<0.05, FIG. 2): in a dose-dependent fashion significantly increases the invasiveness
increase in invasiveness (PC-3M cells [3]; from 0M to 10^-6M NEM, 72 hours, FIG. 2): 70%
receptor binding affinity [4]: high affinity (low nM)

3H-thymidine incorporation (DNA synthesis) in PC-3M cells [5]: > 10 nM
in vitro Matrigel invasion of PC-3M cells [5]: 70%
Molecule: RTCVLGYLHIVPEFIESQLLGLLSPVSL (ligand, also: 125I-labelled form used in RIA) [neuroendocrine growth factor or marker (NEM)]
